Measurements published in patent publication US20230322767A1, “ARYL SUBSTITUTED PYRROLO-PYRIDINONES AND THERAPEUTIC USES THEREOF” (Bayer Aktiengesellschaft, priority 2020, published 2023).
Like-named read-outs stand apart in the source and are kept apart here.

What was measured:
Format in all cases: biochemical
CSNK1D = CSNK1D (Homo sapiens (Human), UniProt P48730); assay: CSNK1D Assay (ADP-Glo, 1 μM ATP); details: median, read-out: CSNK1D IC50 [mol/l] (median)
Procedure, shortened: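 Enzyme preincubated with compound 15 min at 22° C in 50 mM HEPES pH 7.5 buffer with 10 mM MgCl2, 1 mM DTT; kinase reaction run at 1 μM ATP with biotinylated peptide substrate. ADP formed was detected by ADP-Glo luminescence as the measure of activity.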

CSNK1A1 = CSNK1A1 (Homo sapiens (Human), UniProt P48729); assay: CSNK1A1 Assay 2 (ADP-Glo, 1 μM ATP); details: median, read-out: CSNK1A1 Assay 2 IC50 [mol/l] (median)
Sequence of CSNK1A1 (P48729 whole entry): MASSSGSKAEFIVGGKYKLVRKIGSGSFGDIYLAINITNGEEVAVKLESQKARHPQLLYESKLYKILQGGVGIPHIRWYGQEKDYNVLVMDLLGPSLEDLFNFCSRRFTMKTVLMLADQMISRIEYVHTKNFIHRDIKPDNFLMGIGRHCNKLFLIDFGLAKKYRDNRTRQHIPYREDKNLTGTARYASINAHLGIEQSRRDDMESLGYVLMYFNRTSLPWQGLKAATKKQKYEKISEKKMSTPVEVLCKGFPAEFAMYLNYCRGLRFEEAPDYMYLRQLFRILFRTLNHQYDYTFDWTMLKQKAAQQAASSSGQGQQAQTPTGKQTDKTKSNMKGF
Procedure, shortened: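 ADP-Glo luminescence, taken as ADP formed, reports activity against biotinylated phospho-peptide substrate biotin-Ahx-KRRRAL-pS-VASLPGL at 1 μM ATP.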

[1] = molecular target: wild-type Epidermal Growth Factor Receptor (EGFR) (Homo sapiens (Human), UniProt P00533); assay: WT-EGFR Kinase Assay (TR-FRET, 2 mM ATP)
Sequence of wild-type Epidermal Growth Factor Receptor (EGFR) (P00533 669-1210): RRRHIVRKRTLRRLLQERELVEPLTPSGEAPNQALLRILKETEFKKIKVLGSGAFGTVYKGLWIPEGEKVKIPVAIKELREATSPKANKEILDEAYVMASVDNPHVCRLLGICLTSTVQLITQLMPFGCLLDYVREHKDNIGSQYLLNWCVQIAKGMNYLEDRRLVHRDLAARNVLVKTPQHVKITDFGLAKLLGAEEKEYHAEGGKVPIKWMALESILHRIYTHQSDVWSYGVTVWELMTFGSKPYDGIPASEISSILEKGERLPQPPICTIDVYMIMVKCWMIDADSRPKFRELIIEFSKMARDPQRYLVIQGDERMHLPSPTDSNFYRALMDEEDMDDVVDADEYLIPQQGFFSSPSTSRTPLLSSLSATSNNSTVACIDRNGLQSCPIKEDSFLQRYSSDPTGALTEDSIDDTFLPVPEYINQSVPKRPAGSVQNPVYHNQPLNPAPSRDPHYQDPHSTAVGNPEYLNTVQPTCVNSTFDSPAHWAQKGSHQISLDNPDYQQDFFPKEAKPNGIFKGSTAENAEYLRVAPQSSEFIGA
Procedure, shortened: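 TR-FRET read-out of biotinylated peptide phosphorylation, taken as the 665/622 nm ratio after EDTA stop and 1 h detection at 22° C. Kinase: GST fusion of human EGFR aa R669–A1210, given a 15 min compound pre-binding step; reaction run at 2 mM ATP.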

[2] = EGFR Wildtyp 2 mM ATP IC50 [mol/l] (median), median or individual measurements
[3] = read-out: EGFR Wildtyp 2 mM ATP IC50 [mol/l] (median), median or individual measurements

Sequence of CSNK1D (P48730 whole entry): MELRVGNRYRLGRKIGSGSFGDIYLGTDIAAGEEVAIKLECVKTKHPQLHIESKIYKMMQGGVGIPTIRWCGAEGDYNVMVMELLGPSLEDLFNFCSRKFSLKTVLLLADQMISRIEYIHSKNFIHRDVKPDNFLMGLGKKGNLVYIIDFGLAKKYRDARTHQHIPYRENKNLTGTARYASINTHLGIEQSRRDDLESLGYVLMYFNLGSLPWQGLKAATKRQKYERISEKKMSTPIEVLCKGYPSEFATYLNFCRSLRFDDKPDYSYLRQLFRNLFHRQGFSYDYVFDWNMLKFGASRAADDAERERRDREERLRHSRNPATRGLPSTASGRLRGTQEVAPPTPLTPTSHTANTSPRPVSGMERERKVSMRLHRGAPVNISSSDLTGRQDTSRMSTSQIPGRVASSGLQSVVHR

Compound | IC50 (CSNK1D) | IC50 (CSNK1A1) | IC50 [1, 2] | IC50 [1, 3]
CC(C(=O)Nc1cc(-c2[nH]c3c(c2-c2ccc(Cl)cc2)C(=O)NC(C)(C)C3)ccn1)c1ccc(F)cc1 (racemic) [Example 89, N-{4-[3-(4-chlorophenyl)-6,6-dimethyl-4-oxo-4,5,6,7-tetrahydro-1H-pyrrolo[3,2-c]pyridin-2-yl]pyridin-2-yl}-2-(4-fluorophenyl)propanamide] | 0.0043 µM | 0.0068 µM | > 20 µM | 
Cc1ccc(-c2c(-c3ccnc(NC(=O)C(C)c4ccc(F)cc4)c3)[nH]c3c2C(=O)NC(C)(C)C3)cc1 (racemic) [Example 91, N-{4-[6,6-dimethyl-3-(4-methylphenyl)-4-oxo-4,5,6,7-tetrahydro-1H-pyrrolo[3,2-c]pyridin-2-yl]pyridin-2-yl}-2-(4-fluorophenyl)propanamide] | 0.0076 µM | 0.0077 µM | > 20 µM | 
CC(C(=O)Nc1cc(-c2[nH]c3c(c2-c2ccc(F)cc2)C(=O)NC(C)(C)C3)ccn1)c1ccc(F)cc1 (racemic) [Example 94, 2-(4-fluorophenyl)-N-{4-[3-(4-fluorophenyl)-6,6-dimethyl-4-oxo-4,5,6,7-tetrahydro-1H-pyrrolo[3,2-c]pyridin-2-yl]pyridin-2-yl}propanamide] | 0.0032 µM | 0.003 µM | > 20 µM | 
CC(C(=O)Nc1cc(-c2[nH]c3c(c2-c2cccnc2)C(=O)NC(C)(C)C3)ccn1)c1ccc(F)cc1 (racemic) [Example 97, N-{4-[6,6-dimethyl-4-oxo-3-(pyridin-3-yl)-4,5,6,7-tetrahydro-1H-pyrrolo[3,2-c]pyridin-2-yl]pyridin-2-yl}-2-(4-fluorophenyl)propanamide] | 0.014 µM | 0.0081 µM | > 20 µM | 
CC(C(=O)Nc1cc(-c2[nH]c3ccn(C)c(=O)c3c2-c2ccc(F)cc2)ccn1)c1ccc(F)cc1 (racemic) [Example 100, 2-(4-fluorophenyl)-N-{4-[3-(4-fluorophenyl)-5-methyl-4-oxo-4,5-dihydro-1H-pyrrolo[3,2-c]pyridin-2-yl]pyridin-2-yl}propanamide] | 0.0086 µM | 0.0059 µM | > 20 µM | 
CC(C(=O)Nc1cc(-c2[nH]c3ccn(C)c(=O)c3c2-c2ccccc2)ccn1)c1ccc(F)cc1 (racemic) [Example 103, 2-(4-fluorophenyl)-N-[4-(5-methyl-4-oxo-3-phenyl-4,5-dihydro-1H-pyrrolo[3,2-c]pyridin-2-yl)pyridin-2-yl]propanamide] | 0.011 µM | 0.005 µM | > 20 µM | 
CC(C(=O)Nc1cc(-c2[nH]c3ccn(C)c(=O)c3c2-c2cccc(Cl)c2)ccn1)c1ccc(F)cc1 (racemic) [Example 106, N-{4-[3-(3-chlorophenyl)-5-methyl-4-oxo-4,5-dihydro-1H-pyrrolo[3,2-c]pyridin-2-yl]pyridin-2-yl}-2-(4-fluorophenyl)propanamide] | 0.011 µM | 0.0092 µM | > 20 µM | 
Cn1ccc2[nH]c(-c3ccnc(NC(=O)C(CC(F)F)c4ccc(F)cc4)c3)c(-c3ccc(F)cc3)c2c1=O (racemic) [Example 107, 4,4-difluoro-2-(4-fluorophenyl)-N-{4-[3-(4-fluorophenyl)-5-methyl-4-oxo-4,5-dihydro-1H-pyrrolo[3,2-c]pyridin-2-yl]pyridin-2-yl}butanamide] | 0.0044 µM | 0.0035 µM | > 20 µM | 
CC(C(=O)Nc1cc(-c2[nH]c3ccn(C)c(=O)c3c2-c2cccnc2F)ccn1)c1ccc(F)cc1 (racemic) [Example 110, 2-(4-fluorophenyl)-N-{4-[3-(2-fluoropyridin-3-yl)-5-methyl-4-oxo-4,5-dihydro-1H-pyrrolo[3,2-c]pyridin-2-yl]pyridin-2-yl}propanamide] | 0.021 µM | 0.03 µM | > 20 µM | 
Cc1ccccc1-c1c(-c2ccnc(NC(=O)C(C)c3ccc(F)cc3)c2)[nH]c2ccn(C)c(=O)c12 (racemic) [Example 111, 2-(4-fluorophenyl)-N-{4-[5-methyl-3-(2-methylphenyl)-4-oxo-4,5-dihydro-1H-pyrrolo[3,2-c]pyridin-2-yl]pyridin-2-yl}propanamide] | 0.022 µM | 0.037 µM | > 20 µM | 
CC(C(=O)Nc1cc(-c2[nH]c3ccn(C)c(=O)c3c2-c2ccccc2Cl)ccn1)c1ccc(F)cc1 (racemic) [Example 112, N-{4-[3-(2-chlorophenyl)-5-methyl-4-oxo-4,5-dihydro-1H-pyrrolo[3,2-c]pyridin-2-yl]pyridin-2-yl}-2-(4-fluorophenyl)propanamide] | 0.014 µM | 0.023 µM | > 20 µM | 
CC(C(=O)Nc1cc(-c2[nH]c3ccn(C)c(=O)c3c2-c2cccc(O)c2)ccn1)c1ccc(F)cc1 (racemic) [Example 113, 2-(4-fluorophenyl)-N-{4-[3-(3-hydroxyphenyl)-5-methyl-4-oxo-4,5-dihydro-1H-pyrrolo[3,2-c]pyridin-2-yl]pyridin-2-yl}propanamide] | 0.033 µM | 0.032 µM | > 20 µM | 
CC(C(=O)Nc1cc(-c2[nH]c3ccn(C)c(=O)c3c2-c2ccc(F)c(F)c2)ccn1)c1ccc(F)cc1 (racemic) [Example 114, N-{4-[3-(3,4-difluorophenyl)-5-methyl-4-oxo-4,5-dihydro-1H-pyrrolo[3,2-c]pyridin-2-yl]pyridin-2-yl}-2-(4-fluorophenyl)propanamide] | 0.0068 µM | 0.0048 µM | > 20 µM | 
CC(C(=O)Nc1cc(-c2[nH]c3ccn(C)c(=O)c3c2-c2ccoc2)ccn1)c1ccc(F)cc1 (racemic) [Example 115, 2-(4-fluorophenyl)-N-{4-[3-(3-furyl)-5-methyl-4-oxo-4,5-dihydro-1H-pyrrolo[3,2-c]pyridin-2-yl]pyridin-2-yl}propanamide] | 0.0056 µM | 0.0022 µM | > 20 µM | 
CC(C(=O)Nc1cc(-c2[nH]c3ccn(C)c(=O)c3c2-c2ccco2)ccn1)c1ccc(F)cc1 (racemic) [Example 116, 2-(4-fluorophenyl)-N-{4-[3-(2-furyl)-5-methyl-4-oxo-4,5-dihydro-1H-pyrrolo[3,2-c]pyridin-2-yl]pyridin-2-yl}propanamide] | 0.0078 µM | 0.0033 µM | > 5.71 µM | > 5.71 µM
CC(C(=O)Nc1cc(-c2[nH]c3ccn(C)c(=O)c3c2-c2cc(F)c(F)c(F)c2)ccn1)c1ccc(F)cc1 (racemic) [Example 117, 2-(4-fluorophenyl)-N-{4-[5-methyl-4-oxo-3-(3,4,5-trifluorophenyl)-4,5-dihydro-1H-pyrrolo[3,2-c]pyridin-2-yl]pyridin-2-yl}propanamide] | 0.0074 µM | 0.0047 µM | > 20 µM | 
Cn1ccc2[nH]c(-c3ccnc(NC(=O)C(CC(F)F)c4ccc(F)cc4)c3)c(-c3cccnc3)c2c1=O (racemic) [Example 118, 4,4-difluoro-2-(4-fluorophenyl)-N-{4-[5-methyl-4-oxo-3-(pyridin-3-yl)-4,5-dihydro-1H-pyrrolo[3,2-c]pyridin-2-yl]pyridin-2-yl}butanamide] | 0.012 µM | 0.0086 µM | > 20 µM | 
CC(C(=O)Nc1cc(-c2[nH]c3ccn(C)c(=O)c3c2-c2ccc(O)cc2)ccn1)c1ccc(F)cc1 (racemic) [Example 119, 2-(4-fluorophenyl)-N-{4-[3-(4-hydroxyphenyl)-5-methyl-4-oxo-4,5-dihydro-1H-pyrrolo[3,2-c]pyridin-2-yl]pyridin-2-yl}propanamide] | 0.011 µM | 0.015 µM | > 20 µM | 
CC(C(=O)Nc1cc(-c2[nH]c3ccn(C)c(=O)c3c2-c2cc(F)ccc2F)ccn1)c1ccc(F)cc1 (racemic) [Example 120, N-{4-[3-(2,5-difluorophenyl)-5-methyl-4-oxo-4,5-dihydro-1H-pyrrolo[3,2-c]pyridin-2-yl]pyridin-2-yl}-2-(4-fluorophenyl)propanamide] | 0.0081 µM | 0.0065 µM | > 20 µM | 
CC(C(=O)Nc1cc(-c2[nH]c3ccn(C)c(=O)c3c2-c2cc(F)cc(F)c2)ccn1)c1ccc(F)cc1 (racemic) [Example 121, N-{4-[3-(3,5-difluorophenyl)-5-methyl-4-oxo-4,5-dihydro-1H-pyrrolo[3,2-c]pyridin-2-yl]pyridin-2-yl}-2-(4-fluorophenyl)propanamide] | 0.013 µM | 0.007 µM | > 5.71 µM | > 5.71 µM
CC(C(=O)Nc1cc(-c2[nH]c3ccn(C)c(=O)c3c2-c2ccc(Cl)s2)ccn1)c1ccc(F)cc1 (racemic) [Example 122, N-{4-[3-(5-chloro-2-thienyl)-5-methyl-4-oxo-4,5-dihydro-1H-pyrrolo[3,2-c]pyridin-2-yl]pyridin-2-yl}-2-(4-fluorophenyl)propanamide] | 0.009 µM | 0.0036 µM | > 5.71 µM | > 5.71 µM
CC(C(=O)Nc1cc(-c2[nH]c3ccn(C)c(=O)c3c2-c2ccccc2C#N)ccn1)c1ccc(F)cc1 (racemic) [Example 123, N-{4-[3-(2-cyanophenyl)-5-methyl-4-oxo-4,5-dihydro-1H-pyrrolo[3,2-c]pyridin-2-yl]pyridin-2-yl}-2-(4-fluorophenyl)propanamide] | 0.022 µM | 0.025 µM | > 20 µM | 
